{"source": "patent US20210106601A1", "about": "“MANGIFERIN AS A PROTECTIVE AGENT AGAINST MITOCHONDRIAL DNA DAMAGE AND SKIN-CARE COMPOSITIONS COMPRISING SAME” (priority 2018, published 2021)", "key": {"HDFn cells [1]": {"system": "HDFn cells", "experiment": "Cell viability assay (MTS cell proliferation assay)", "type": "cell-based", "details": "unfiltered extract, 50 to 50,000 μg/ml, 24 hours incubation", "description": "Stock solutions of mangiferin were made by dissolving mangiferin extract in water, and diluting to the required concentration. The stock solutions were then added to HDFn cells at a range of concentrations from 50 μg/ml to 50,000 μg/ml, and incubated for 24 hours under standard culture conditions."}, "[2]": {"experiment": "Solubility of mangiferin in deionised water", "type": "physicochemical", "description": "In order to assess the solubility of mangiferin in aqueous solution, 0.18 g of mangiferin was added to 100 mls of deionised water. […] The solution was then Buchner filtered, and the mass of the undissolved material weighed. Solubility was calculated based on the difference between the initial mass of mangiferin and that of the undissolved material."}, "UV absorbance scan": {"experiment": "UV absorbance scan", "type": "physicochemical", "details": "1,000 μg/ml, quartz cell", "description": "A UV absorbance scan was performed on mangiferin extract at a concentration of 1,000 μg/ml, and the results are shown in FIG. 6. The spectrometer was set up using a quartz cell with a 1.05 ms integration time (the minimum for the spectrometer) and the spectra was based on an average of 100 samples.\nUV absorbance scans were performed on stock solutions of the mangiferin-complexes prepared in example 8 above and the results are shown in FIG. 7. The spectrometer was set up using a quartz cell with a 1.05 ms integration time (the minimum for the spectrometer) and the spectra was based on an average of 100 samples. The mangiferin-only solution required to be diluted to 25% of its original concentration to reach the point at which it no longer saturated the spectrometer, while mangiferin-complex solutions were diluted to 2.5%. However, good absorbance was then observed for all of the samples, with the characteristic peaks at ^˜320 nm and ^˜370 nm clearly visible."}, "HDFn cells [3]": {"system": "HDFn cells", "experiment": "mtDNA damage after UV irradiation (1 kb real-time qPCR assay)", "type": "cell-based, human", "details": "UV 2 SED", "description": "1,000 μg/ml solutions of mangiferin extract were prepared as outlined in Example 1 above. 3 ml of the mangiferin solution was added to a 45 mm diameter quartz glass petri dish. Quartz was chosen as it is known to permit both UVA and UVB rays to pass through. The quartz glass dish was then placed on top of a slightly smaller dish containing the cultured HDFn cells. The cells were then irradiated through the quartz glass petri dish, using either a Cleo Performance (iSOLde, Germany) or Aramid B (Cosmedico, Germany) lamp at 2 standard erythemal doses (SED). […]\nFollowing irradiation, total DNA was extracted and mtDNA damage analysed using a 1 kb real-time qPCR assay. mtDNA damage is expressed as a Ct value (where a 1 Ct difference is equivalent to a 2-fold difference in damage), and is based on the observation that damaged mtDNA takes longer to be amplified via qPCR. To find the acellular UV transmission of extracts, the dish containing the diluted extract was placed on top of a spectroradiometer and the amount of UV which passes through the dish was measured. All statistical differences were determined using one-way ANOVA with Dunnett's test to compare to a control column (0.05*, P<0.01**, P<0.001***). […]"}}, "note": "Where “and” joins values, the source holds several entries; their conditions need not be identical. Equal entries are not always repeated."}
{"compound": "O=c1c2cc(O)c(O)cc2oc2cc(O)c(C3OC(CO)C(O)C(O)C3O)c(O)c12", "note": "(stereo not shown) [mangiferin, 1,3,6,7-tetrahydroxy-2-[3,4,5-trihydroxy-6-(hydroxymethyl)oxan-2-yl]xanthen-9-one]", "values": [{"measurement": "concentration up to which cell viability is seen (cell death above)", "setting": "HDFn cells [1]", "value": "~5,000 μg/ml"}, {"measurement": "solubility in water (in words)", "setting": "[2]; even after stirring for 24 hours", "value": "very insoluble in water"}, {"measurement": "solubility at 4 h", "setting": "[2]; thermodynamic from solid, deionised water, 40° C., 500 rpm, stirring time 4 hours", "value": 43, "unit": "µg/mL"}, {"measurement": "solubility at 24 h", "setting": "[2]; thermodynamic from solid, deionised water, 40° C., 500 rpm, stirring time 24 hours", "value": 139, "unit": "µg/mL"}, {"measurement": "UV absorbance peaks", "setting": "UV absorbance scan", "value": "~320 nm and ~370 nm"}, {"measurement": "increase in mtDNA damage compared with foil-wrapped (non-irradiated) samples", "setting": "HDFn cells [3]; 1,000 μg/ml solution in quartz dish above cells, water control 3.1 Cts", "value": 1.6, "unit": "Cts"}, {"measurement": "fold increase in mtDNA damage compared with foil-wrapped samples", "setting": "HDFn cells [3]; 1,000 μg/ml, 1 Ct = 2-fold, water control approximately 8-fold", "value": "approximately 3 fold"}]}
